How the values were obtained:
[1] = human clinical trials, safety profile; type: in vivo
clinical subjects = assay: clinical observation, pupil response; type: in vivo, human
[2] = detection of radiolabelled compound in saliva; type: in vivo
rats = assay: in vivo animal observation, overdose in rats; details: rats exposed to an overdose
[3] = system: muscarinic cholinergic receptor; assay: pharmacological studies, muscarinic cholinergic receptor activity
[4] = system: muscarinic receptor subtype; assay: in vivo animal and clinical observations, muscarinic receptor subtype profile
[5] = known; cited from earlier work
5-HT1C receptor = assay: activity at the 5-HT1C receptor; details: anhydrous Form II

Compound	safety profile [1]	pupilary response (clinical subjects)	detection in the saliva [2]	salivation (rats)	muscarinic cholinergic receptor activity [3]	muscarinic receptor subtype profile [4]	induction of extrapyramidal symptoms [5]	activity at the 5-HT1C receptor (5-HT1C receptor)
Cc1cc2c(s1)Nc1ccccc1N=C2N1CCN(C)CC1 [2-methyl-4-(4-methyl-1-piperazinyl)-10H-thieno[2,3-b][1,5]benzodiazepine]	favorable safety profile	pupilary constriction rather than the expected pupilary dilation	can be detected in the saliva	significant salivation	has muscarinic cholinergic receptor activity	complex muscarinic receptor subtype profile	less likely to induce extrapyramidal symptoms	–
Cc1cc2c(s1)Nc1ccccc1N=C2N1CCN(C)CC1 [anhydrous Form II, 2-methyl-4-(4-methyl-1-piperazinyl)-10H-thieno[2,3-b][1,5]benzodiazepine]	–	–	–	–	–	–	–	active
